In US7411083B2, “Substituted acetic acid derivatives” (Wyeth, priority 2003, dated 2008):

The molecules below were run against T1, recombinant human plasminogen activator inhibitor-1 (PAI-1) (Homo sapiens, UniProt P05121) (assay: Screening for PAI-1 inhibition (residual tPA activity, Spectrozyme-tPA chromogenic substrate)). Settings: test compound at 100 Um; pH 6.6 buffer, 140 nM PAI-1, 70 nM tPA.
T1 construct: purchased Molecular Innovations, Royal Oak, Mich
Assay type: biochemical
Protocol: Screening for PAI-1 inhibition. Test compounds are dissolved in DMSO at a final concentration of 10 Mm, then diluted 100× in physiologic buffer. The inhibitory assay is initiated by the addition of the test compound (1-100 μM final concentration, maximum DMSO concentration of 0.2%) in a Ph 6.6 buffer containing 140 Nm recombinant human plasminogen activator inhibitor-1 (PAI-1; Molecular Innovations, Royal Oak, Mich.). Following a 1 hour incubation at room temperature, 70 Nm of recombinant human tissue plasminogen activator (Tpa) is added, and the combination of the test compound, PAI-1 and Tpa is incubated for an additional 30 minutes. Following the second incubation, Spectrozyme-Tpa (American Diagnostica, Greenwich, Conn.), a chromogenic substrate for Tpa, is added and absorbance read at 405 nm at 0 and 60 minutes. Relative PAI-1 inhibition is equal to the residual Tpa activity in the presence of the test compounds and PAI-1. Control treatments include the complete inhibition of Tpa by PAI-1 at the molar ratio employed (2:1), and the absence of any effect of the test compound on Tpa alone.

T1 sequence (P05121 24-402): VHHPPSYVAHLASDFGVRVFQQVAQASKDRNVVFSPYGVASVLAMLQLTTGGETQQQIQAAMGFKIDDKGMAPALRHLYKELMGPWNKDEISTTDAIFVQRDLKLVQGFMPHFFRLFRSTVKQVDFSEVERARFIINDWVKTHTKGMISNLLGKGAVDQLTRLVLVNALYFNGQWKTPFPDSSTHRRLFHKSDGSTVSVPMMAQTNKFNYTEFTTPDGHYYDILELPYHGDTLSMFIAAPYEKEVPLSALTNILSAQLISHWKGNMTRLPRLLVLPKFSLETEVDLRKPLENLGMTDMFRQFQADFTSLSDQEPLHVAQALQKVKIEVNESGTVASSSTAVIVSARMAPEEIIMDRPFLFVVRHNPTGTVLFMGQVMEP

| Compound | inhibition at 100 µM |
| --- | --- |
| Cc1cccc(COc2ccc(/C=N/OCC(=O)O)cc2OCc2cccc(C)c2)c1 [Compound 118, {[((1E)-{3,4-bis[(3-methylbenzyl)oxy]phenyl}methylidene)amino]oxy}acetic acid] | 92% |
| O=C(O)CO/N=C/c1cccc(-c2ccc(OCc3cc(C(F)(F)F)cc(C(F)(F)F)c3)cc2)c1 [Compound 76, ({[(1E)-(4′-{[3,5-bis(trifluoromethyl)benzyl]oxy}-1,1′-biphenyl-3-yl)methylidene]amino}oxy)acetic acid] | 73% |
| O=C(O)CO/N=C/c1cccc(-c2ccc(OCc3ccc4ccccc4c3)cc2)c1 [Compound 84, [({(1E)-[4′-(2-naphthylmethoxy)-1,1′-biphenyl-3-yl]methylidene}amino)oxy]acetic acid] | 30% |
| O=C(O)CO/N=C/c1cc(OCc2ccc(F)c(F)c2)cc(OCc2ccc(F)c(F)c2)c1 [Compound 151, {[((1E)-{3,5-bis[(3,4-difluorobenzyl)oxy]phenyl}methylidene)amino]oxy}acetic acid] | 88% |
| O=C(O)CO/N=C/c1cccc(-c2ccc(OCc3ccc(Br)cc3)cc2)c1 [Compound 75, {[((1E)-{4′-[(4-bromobenzyl)oxy]-1,1′-biphenyl-3-yl}methylidene)amino]oxy}acetic acid] | 75% |
| O=C(O)CO/N=C/c1ccc(OCc2cccc(C(F)(F)F)c2)cc1OCc1cccc(C(F)(F)F)c1 [Compound 130, ({[(1E)-(2,4-bis{[3-(trifluoromethyl)benzyl]oxy}phenyl)methylidene]amino}oxy)acetic acid] | 91% |
| O=C(O)CO/N=C/c1cccc(OCc2cccc(C(F)(F)F)c2)c1OCc1cccc(C(F)(F)F)c1 [Compound 139, ({[(1E)-(2,3-bis{[3-(trifluoromethyl)benzyl]oxy}phenyl)methylidene]amino}oxy)acetic acid] | 90% |
| O=C(O)CO/N=C/c1cc(OCc2ccc(Br)cc2)ccc1OCc1ccc(Br)cc1 [Compound 155, {[((1E)-{2,5-bis[(4-bromobenzyl)oxy]phenyl}methylidene)amino]oxy}acetic acid] | 85% |
| O=C(O)CO/N=C/c1ccc(-c2cccc(OCc3ccc4ccccc4c3)c2)cc1 [Compound 98, [({(1E)-[3′-(2-naphthylmethoxy)-1,1′-biphenyl-4-yl]methylidene}amino)oxy]acetic acid] | 46% |
| O=C(O)CO/N=C/c1cc(OCc2cccc(C(F)(F)F)c2)cc(OCc2cccc(C(F)(F)F)c2)c1 [Compound 149, ({[(1E)-(3,5-bis{[3-(trifluoromethyl)benzyl]oxy}phenyl)methylidene]amino}oxy)acetic acid] | 91% |
| CC(C)(C)c1ccc(COc2cccc(-c3cccc(/C=N/OCC(=O)O)c3)c2)cc1 [Compound 59, {[((1E)-{3′-[(4-tert-butylbenzyl)oxy]-1,1′-biphenyl-3-yl}methylidene)amino]oxy}acetic acid] | 63% |
| O=C(O)CO/N=C/c1ccc(OCc2ccc(Br)cc2)cc1OCc1ccc(Br)cc1 [Compound 125, {[((1E)-{2,4-bis[(4-bromobenzyl)oxy]phenyl}methylidene)amino]oxy}acetic acid] | 90% |
| O=C(O)CO/N=C/c1ccc(-c2cccc(OCc3cccc(C(F)(F)F)c3)c2)cc1 [Compound 94, ({[(1E)-(3′-{[3-(trifluoromethyl)benzyl]oxy}-1,1′-biphenyl-4-yl)methylidene]amino}oxy)acetic acid] | 74% |
| O=C(O)CO/N=C/c1cccc(C#CCOc2cc(C(F)(F)F)cc(C(F)(F)F)c2)c1 [Compound 170, ({[(1E)-(3-{3-[3,5-bis(trifluoromethyl)phenoxy]prop-1-ynyl}phenyl)methylidene]amino}oxy)acetic acid] | 73% |
| O=C(O)CO/N=C/c1cccc(-c2cccc(OCc3ccc4ccccc4c3)c2)c1 [Compound 69, [({(1E)-[3′-(2-naphthylmethoxy)-1,1′-biphenyl-3-yl]methylidene}amino)oxy]acetic acid] | 53% |
| O=C(O)CO/N=C/c1cccc(-c2ccc(OCc3c(Cl)cccc3Cl)cc2)c1 [Compound 87, {[((1E)-{4′-[(2,6-dichlorobenzyl)oxy]-1,1′-biphenyl-3-yl}methylidene)amino]oxy}acetic acid] | 85% |
| O=C(O)CO/N=C/c1ccc(OCc2cccc(C(F)(F)F)c2)c(OCc2cccc(C(F)(F)F)c2)c1 [Compound 119, ({[(1E)-(3,4-bis{[3-(trifluoromethyl)benzyl]oxy}phenyl)methylidene]amino}oxy)acetic acid] | 93% |
| O=C(O)CO/N=C/c1ccc(OCc2ccc(F)c(F)c2)cc1OCc1ccc(F)c(F)c1 [Compound 131, {[((1E)-{2,4-bis[(3,4-difluorobenzyl)oxy]phenyl}methylidene)amino]oxy}acetic acid] | 88% |

The remaining lines, values ahead:

| inhibition at 100 µM | Compound |
| --- | --- |
| 68% | CCn1cc(/C=N/OCC(=O)O)c2cc(OCc3cccc(Cl)c3)ccc21 [Compound 17, {[((1E)-{5-[(3-chlorobenzyl)oxy]-1-ethyl-1H-indol-3-yl}methylidene)amino]oxy}acetic acid] |
| 93% | C=CCn1cc(/C=N/OCC(=O)O)c2cc(OCc3ccccc3Cl)ccc21 [Compound 49, {[((1E)-{1-allyl-5-[(2-chlorobenzyl)oxy]-1H-indol-3-yl}methylidene)amino]oxy}acetic acid] |
| 83% | C=CCn1cc(/C=N/OCC(=O)O)c2cc(OCc3ccc(C(C)(C)C)cc3)ccc21 [Compound 4, {[((1E)-{1-allyl-5-[(4-tert-butylbenzyl)oxy]-1H-indol-3-yl}methylidene)amino]oxy}acetic acid] |
| 34% | Cc1ccc(COc2ccc(-c3cccc(/C=N/OCC(=O)O)c3)cc2)cc1 [Compound 85, {[((1E)-{4′-[(4-methylbenzyl)oxy]-1,1′-biphenyl-3-yl}methylidene)amino]oxy}acetic acid] |
| 93% | CCn1cc(/C=N/OCC(=O)O)c2cc(OCc3ccc(C(C)(C)C)cc3)ccc21 [Compound 5, {[((1E)-{5-[(4-tert-butylbenzyl)oxy]-1-ethyl-1H-indol-3-yl}methylidene)amino]oxy}acetic acid] |
| 31% | Cn1cc(/C=N/OCC(=O)O)c2cc(OCc3ccccc3Cl)ccc21 [Compound 50, {[((1E)-{5-[(2-chlorobenzyl)oxy]-1-methyl-1H-indol-3-yl}methylidene)amino]oxy}acetic acid] |
| 62% | O=C(O)CO/N=C/c1ccc(-c2ccc(OCc3cccc(Br)c3)cc2)cc1 [Compound 103, {[((1E)-{4′-[(3-bromobenzyl)oxy]-1,1′-biphenyl-4-yl}methylidene)amino]oxy}acetic acid] |
| 85% | O=C(O)CO/N=C/c1cc(OCc2cccc(Cl)c2)ccc1OCc1cccc(Cl)c1 [Compound 157, {[((1E)-{2,5-bis[(3-chlorobenzyl)oxy]phenyl}methylidene)amino]oxy}acetic acid] |
| 91% | O=C(O)CO/N=C/c1ccc(OCc2cccc(Br)c2)cc1OCc1cccc(Br)c1 [Compound 128, {[((1E)-{2,4-bis[(3-bromobenzyl)oxy]phenyl}methylidene)amino]oxy}acetic acid] |
| 76% | O=C(O)CO/N=C/c1ccc(-c2cccc(OCc3cccc(Cl)c3)c2)cc1 [Compound 92, {[((1E)-{3′-[(3-chlorobenzyl)oxy]-1,1′-biphenyl-4-yl}methylidene)amino]oxy}acetic acid] |
| 62% | C#CCn1cc(/C=N/OCC(=O)O)c2cc(OCc3cccc(Cl)c3)ccc21 [Compound 38, [({(1E)-[5-[(3-chlorobenzyl)oxy]-1-(2-propynyl)-1H-indol-3-yl]methylidene}amino)oxy]acetic acid] |
| 64% | Cn1cc(/C=N/OCC(=O)O)c2cc(OCc3ccc4ccccc4c3)ccc21 [Compound 57, [({(1E)-[1-methyl-5-(2-naphthylmethoxy)-1H-indol-3-yl]methylidene}amino)oxy]acetic acid] |
| 57% | O=C(O)CO/N=C/c1cn(Cc2ccccc2)c2ccc(OCc3cc(C(F)(F)F)cc(C(F)(F)F)c3)cc12 [Compound 12, ({[(1E)-(1-benzyl-5-{[3,5-bis(trifluoromethyl)benzyl]oxy}-1H-indol-3-yl)methylidene]amino}oxy)acetic acid] |
| 85% | O=C(O)CO/N=C/c1cccc(-c2ccc(OCc3cccc(Br)c3)cc2)c1 [Compound 77, {[((1E)-{4′-[(3-bromobenzyl)oxy]-1,1′-biphenyl-3-yl}methylidene)amino]oxy}acetic acid] |
| 57% | O=C(O)CO/N=C/c1cccc(-c2ccc(OCc3ccc(Cl)c(Cl)c3)cc2)c1 [Compound 83, {[((1E)-{4′-[(3,4-dichlorobenzyl)oxy]-1,1′-biphenyl-3-yl}methylidene)amino]oxy}acetic acid] |
| 80% | Cc1ccc(COc2ccc3c(c2)c(/C=N/OCC(=O)O)cn3Cc2ccccc2)cc1 [Compound 21, {[((1E)-{1-benzyl-5-[(4-methylbenzyl)oxy]-1H-indol-3-yl}methylidene)amino]oxy}acetic acid] |
| 83% | CCn1cc(/C=N/OCC(=O)O)c2cc(OCc3ccc(C(F)(F)F)cc3)ccc21 [Compound 2, ({[(1E)-(1-ethyl-5-{[4-(trifluoromethyl)benzyl]oxy}-1H-indol-3-yl)methylidene]amino}oxy)acetic acid] |
